In US20250295701A1, “Kit for Induction of Continuous Expansion of Hepatoblast Organoids and/or Hepatocyte Organoids Under 3D Suspension Conditions and Use Thereof” (South China University of Technology, priority 2022, published 2025):

What was measured:
[1] = system: polarized hepatocyte organoids; assay: Cholestasis detection by CDFDA staining; format: cell-based, human; conditions: drug at its IC25 value for 48 hours
Procedure: In addition, CDFDA staining was used to test the appearance of the cholestasis in polarized hepatocyte organoids which are treated by these drugs at IC25 values of each drug for 48 hours, and then the occurrence of the cholestasis after drug treatment was evaluated by whether fluorescent CDFDA product is transported into bile canaliculi through apical protein.

[2] = system: polarized hepatocyte organoids; assay: Drug toxicology analysis (cell viability, IC50) in polarized hepatocyte organoids; format: cell-based, human; conditions: 48 hours after drug treatment, cell viability detection kit
Procedure: Polarized hepatocyte organoids (could be used in drug screening models 6 days after the maturation) after the maturation from the differentiation were collected, and distributed into ultra-low attachment 96-well culture plates using the pipette, about 10-20 organoids were seeded in each well, then different drugs could be employed for toxicology analysis. In this Example, toxicology analysis was performed on 8 kinds of drugs (Mannitol, Troglitazone, Chlorpromazine, Diclofenac, Cyclosporine A, Nefazodone, Tolcapone, Bosentan) to detect the ability of polarized hepatocyte organoids to predict the toxicity of each drug during drug screening/toxicology analysis. During the toxicology analysis, at least 7 different concentrations were selected for each drug, and wells in triplicate were performed for each concentration. Forty-eight hours after drug treatment, cell viabilities are detected using cell viability detection kit and IC50 curves were drawn. Finally, IC50 value of each drug for each cell type was calculated. In addition to polarized hepatocyte organoids, non-polarized hepatocyte spheroids and HepG2 cells (hepatoma cell lines, commonly used for hepatocyte drug screening) spheroids were also simultaneously used for drug toxicology analysis.

hepatocyte organoids = assay: Hepatocyte lipid accumulation model induced with oleic acid; format: cell-based, human
Procedure: After mature hepatocyte organoids were differentiated from long-term cultured HB organoids (the lipid accumulation model could be developed 6 days after the differentiation), oleic acid (OA) was used with the concentrations at 200 and 800 μM to induce the lipid accumulation model. […] Next spermidine (SPD), a drug that alleviates lipid accumulation in hepatocytes, was used to conduct the rescue. SPD was added into the medium at 200 μM at the same time during the treatment with OA. […] The above results lay the foundation for the subsequent applications of polarized hepatocyte organoids in the development of drugs related to hepatocyte lipid accumulation and the treatment of lipid accumulation.

[3] = system: phase I metabolizing enzymes
hepatoblasts = assay: Step-down removal of factors from the HB organoid expansion medium; format: cell-based, human; conditions: for Ki67 expression level after removing the factor: flow cytometry, compared with complete medium group
Source text: Based on the related-signaling pathways affecting the regeneration/proliferation/expansion of hepatoblasts in vivo and in vitro, the development of the medium formula for HB organoid expansion was to initially select small molecules or cytokines corresponding to the pathways to mimic the process of hepatic progenitor regeneration, and finally the combination of small molecules with cytokines had been established. Through comprehensive investigation on a large amount of literature, it had been shown that Wnt, TGFβ, cAMP, Activin, EGF and HGF pathways were related to the regeneration of hepatoblasts. […] Afterwards, the step-down method through removing factors one by one from the combination had been used to verify which small molecule/cytokine was essential for the long-term culture of hepatoblasts. […] Finally, flow cytometry had been used to detect the expression levels of cell proliferation marker Ki67. […] Therefore, finally the expansion medium of HB organoid was determined as the fifth medium in Example 1: IMDM medium supplemented with 10 % w/w FBS, 1% w/w ITS, 1% w/w NEAA, 1% w/w GlutaMAX, 10 mM Nicotinamide, 5 μM CHIR99021, 10 µM SB431542, 10 μM FSK, 20 ng/mL FGF-4, 20 ng/mL BMP4, 20 ng/mL EGF and 5% Matrigel.

[4] = factor removed from complete medium

**Q.** How did the “occurrence of the cholestasis” value [1] turn out when `OC[C@@H](O)[C@@H](O)[C@H](O)[C@H](O)CO` [Mannitol] was run?
**A.** The value was “do not induce the cholestasis”.

**Q.** And the toxicity to hepatocytes [2]?
**A.** Its toxicity to hepatocytes is “no toxic”.

**Q.** With `Cc1ccc(C(=O)c2cc(O)c(O)c([N+](=O)[O-])c2)cc1` [Tolcapone] as the molecule, how does the “occurrence of the cholestasis” value [1] read?
**A.** The value was “do not induce the cholestasis”.

**Q.** What does the source list for `CCCCCCCC/C=C\CCCCCCCC(=O)O` [OA, oleic acid]?
**A.** levels of intracellular ROS (hepatocyte organoids; OA 200 and 800 μM, flow cytometry): increased; levels of intracellular triglyceride (hepatocyte organoids; OA 200 and 800 μM, kit): increase; content of lipid droplets (hepatocyte organoids; OA 200 and 800 μM, two days, oil red staining): gradually increased; expression levels of lipid accumulation related genes FASN and PLIN2 (hepatocyte organoids; after OA modeling, qPCR): significantly increased

**Q.** `COc1ccc2[nH]c([S+]([O-])Cc3ncc(C)c(OC)c3C)nc2c1` (centres unmarked) [omeprazole] was tested. Which “drug metabolism levels (metabolic function of CYP3A4, CYP2C9 and CYP1A2)” value [3] did it give?
**A.** Its value is “higher”.

**Q.** Which “efficiency of cloning formation after removing the factor” value (hepatoblasts; [4]) does the source give for `NC(=O)c1ccc(-c2nc(-c3ccc4c(c3)OCO4)c(-c3ccccn3)[nH]2)cc1` [SB431542] here?
**A.** The value was “significantly reduced”.

**Q.** How did the “Ki67 expression level after removing the factor” value (hepatoblasts) turn out when hepatocyte growth factor [HGF] was run?
**A.** Its value is “higher expression peak”.

**Q.** With `Cc1c[nH]c(-c2cnc(NCCNc3ccc(C#N)cn3)nc2-c2ccc(Cl)cc2Cl)n1` [CHIR99021] as the molecule, how does the “efficiency of cloning formation after removing the factor” value (hepatoblasts; [4]) read?
**A.** The value was “significantly reduced”.

**Q.** And the “morphological changes of cell spheroids after removing the factor” value (hepatoblasts; [4])?
**A.** Its value is “unable to form hollow organoid-like structures”.

**Q.** For `O=C(O)Cc1ccccc1Nc1c(Cl)cccc1Cl` [Dicofenac, Diclofenac], which “occurrence of the cholestasis” value [1] is on record?
**A.** Its value is “do not induce the cholestasis”.

**Q.** `C[C@@H](N)[C@H]1CC[C@H](C(=O)Nc2ccncc2)CC1` [Y27632, Y-27632] was tested. Which “effect of Rock inhibitor during the expansion of HB organoids” value (hepatoblasts; added at cell inoculation) did it give?
**A.** The value was “only maintains cell viability at day 0”.

**Q.** What about the “Ki67 expression level after removing the factor” value (hepatoblasts) of the same molecule?
**A.** The value was “higher expression peak”.

**Q.** With `NCCCCNCCCN` [SPD, spermidine] as the molecule, how does the “relative number of lipid droplets” value (hepatocyte organoids; SPD 200 μM added with OA, two days) read?
**A.** The value was “significantly reduced”.

**Q.** What about the “expression levels of genes related to lipid accumulation” value (hepatocyte organoids; SPD 200 μM added with OA, two days, qPCR) of the same molecule?
**A.** The value was “decreased”.
